The values that follow come from PMC8583849 (International Journal of Molecular Sciences, 2021).

In test [1] the test system is Mpro. Nature of the test: Thermostability assay (TSA). It is filed as binding, SARS-CoV-2. As to conditions: 1 μM protein, normalized with DMSO. As to the method:
A reaction mixture containing the protein at 1 μM final concentration and increasing molar excesses of MG-132 (1×, 3×, 10×, 20×, and 50×) was tested. In each well: 20 μL of buffer 5×, 2 μL of protein stock, the volume of MG-132 stock needed for the fixed molar excess, and Milli-Q H2O to reach 99 μL was added. The protein was left in incubation with the compound for 30 min at room temperature. The plate was put on ice, and 1 μL of 500 × SYPRO orange (Thermo Fischer Scientific) was added in each well. The plate was sealed and centrifuged at 200× g and 4 °C for 1 min. The melting curves were measured in a RT-PCR (Eppendorf, Milan, Italy). After a stationary phase of 2 min at 25 °C, the temperature was increased by 0.5 °C every 30 s until the maximum of 95 °C was reached. Fluorescence has been measured at each step. Each condition has been reproduced in tripled. The Tm control with the protein and the equivalent volume of DMSO only was assessed as well.

For test [2], the target named is T1, Cathepsin-L (Homo sapiens, UniProt P07711).
T1 construct: purchased BPS Bioscience 79591
T1 sequence (P07711 114-333): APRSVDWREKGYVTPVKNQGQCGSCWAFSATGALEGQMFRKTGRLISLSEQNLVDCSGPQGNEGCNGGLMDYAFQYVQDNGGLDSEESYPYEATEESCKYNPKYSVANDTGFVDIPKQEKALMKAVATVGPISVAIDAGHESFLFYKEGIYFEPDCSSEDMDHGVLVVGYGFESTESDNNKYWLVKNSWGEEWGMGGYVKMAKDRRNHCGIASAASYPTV
Briefly: Cathepsin-L Inhibitor Screening Kit (Fluorometric). The format is biochemical. As to the method:
The effect of MG-132 on Cathepsin-L activity was measured using the Cathepsin-L Inhibitor Screening Kit (Fluorometric) (BPS Bioscience #79591, San Diego, CA, USA). The assay is based on the Cathepsin-L mediated cleavage of a synthetic fluorogenic substrate. Generated AFC is measured on a fluorescence microplate reader. The assay was performed according to the manufacturer protocol but adapted to 384-well format with a final volume of 10 μL. Briefly, compounds (stock in 100% v/v DMSO) are transferred in black 384-well microplates by acoustic dispensing (Echo, Labcyte, Beckman Coulter); 5 µL of diluted Cathepsin-L is added and incubated for 30 min at RT. The enzymatic reaction is initiated by the addition of 5 µL of the substrate. The fluorescence signal is detected in a kinetic mode for 15 min at 37 °C using Ex/Em = […] (Envision, PerkinElmer). Final assay concentrations were: Cathepsin-L 0.01 ng/μL, substrate 5 μM. E-64 provided in the kit was used as a positive control for Cathepsin-L inhibition and assay validation. DMSO was used as compound solvent control (0% inhibition).

Test [3] concerns T2, SARS-CoV-2 protease PLpro.
T2 construct: the papain-like protease (PLpro; nsp3)
Briefly: Activity towards PLpro. It is filed as biochemical. As to conditions: paper in preparation. An excerpt:
Knowing the role of MG-132 in inhibition of the proteasome and representatives of Cathepsin and Calpain proteases, we investigated its role in the inhibition of Cathepsin-L, one of the key enzymes needed for the entry of SARS-CoV-2. Previously, we reported the anti-cytopathic activity of MG-132 in SARS-CoV-2 infected Vero-E cells [see CHEMBL Entry https://www.ebi.ac.uk/chembl/document_report_card/CHEMBL4495565/, accessed on 28 October 2021]. The results were confirmed by different groups reporting antiviral activity also in other cell lines like Huh-7 and Calu-3 all with sub-micromolar EC50 [39]. If we compare the antiviral activity in cells to the high IC50 measured against Mpro it is reasonable to assume that the effect on Mpro is probably too low to justify submicromolar cell activity, and thus it is supported by inhibition of host proteases. We have measured no activity towards the second SARS-CoV-2 protease PLpro (paper in preparation).

Test [4] concerns SARS-CoV-2 main protease (Mpro). Details: method as in PMID 35287429. The following applies: read-out: IC50 in the Mpro enzymatic assay, cited from earlier work.
Test [5] concerns SARS-CoV-2 strain BetaCov/Belgium/GHB-03021/2020. Details: method as in PMID 35287429. As to conditions: Vero-E6 cells infected by SARS-CoV-2; read-out: EC50, reduction of viral RNA (qPCR); cited from earlier work.
Test [6] deals with rat liver isolated Cathepsin-L. Details: method as in PMID 18830882. As to conditions: cited from earlier work.
Test [7] has as its system SARS-CoV-2 in Huh-7. Details: method as in PMID 33811811. The following applies: Huh-7 cells; cited from earlier work.
The subject of test [8] is SARS-CoV-2 in Calu-3. Set-up: method as in PMID 33811811. The following applies: Calu-3 cells; cited from earlier work.
The subject of test [9] is Cathepsin-L. Set-up: method as in https://www.apexbt.com/e-64.html. As to conditions: ref https://www.apexbt.com/e-64.html; read-out: IC50, Cathepsin-L inhibition, literature value; cited from earlier work.

Read-outs that look alike come from different tables or passages of the source. Peptide text beside a SMILES is read from it. * marks the point of attachment. Cbz = O=C(OCc1ccccc1)*

Usually ΔTm stands for the change in melting temperature against a reference sample. As usually defined, the IC50 is the concentration that gives 50% inhibition. For orientation: EC50 means the concentration needed to bring the measured effect to its halfway point. For the molecule `CC(C)C[C@@H](C=O)NC(=O)[C@H](CC(C)C)NC(=O)[C@H](CC(C)C)NC(=O)OCc1ccccc1` [MG-132] (Cbz-Leu-Leu-Leu-aldehyde), the shift in melting temperature (ΔTm) in test [1] (50 molar excess of inhibitor) was 3.5 °C; in test [1] (one molar excess of inhibitor), 0.5 °C. The IC50 in [2] (IC50 (M), Cathepsin-L inhibition, fit values given in Figure 6) was 1.55e-10 M; in test [2] (IC50, Cathepsin-L inhibition, Cathepsin-L 0.01 ng/μL, substrate 5 μM, 30 min incubation at RT), 1.5e-10 M; in [4], 7400 nM; in test [4] (with 1 mM DTT) it was 4700 nM. Also, in test [2] (fit values given in Figure 6), the “HillSlope, Cathepsin-L inhibition” value is listed as -1.826. The “LogIC50, Cathepsin-L inhibition” value in test [2] (fit values given in Figure 6) is given as -9.811. Further, the “activity towards PLpro” value in test [3] is “no activity”. The EC50 in test [5] is 100 nM; in test [6], 163 nM. Besides, the “EC50, antiviral activity” value in test [7] and in test [8] was “sub-micromolar” in each case.
As for `CC(C)C[C@H](NC(=O)[C@H]1O[C@@H]1C(=O)O)C(=O)NCCCCN=C(N)N` [E64], the half-maximal inhibitory concentration (IC50) is 2.7e-09 M in test [2] (Cathepsin-L 0.01 ng/μL, substrate 5 μM, 30 min incubation at RT, read-out: IC50, Cathepsin-L inhibition); 2.75e-09 M in [2] (fit values given in Figure 6, read-out: IC50 (M), Cathepsin-L inhibition); 2.5 nM in test [9]. In [2] (fit values given in Figure 6), the “HillSlope, Cathepsin-L inhibition” value is given as -2.040. In addition, the “LogIC50, Cathepsin-L inhibition” value in [2] (fit values given in Figure 6) is recorded as -8.560.
